What was measured:
[1] = white crystalline powder from Mallinckrodt; cited from earlier work
[2] = Effect of 1 mM sodium tungstate on subcutaneous formulation (Table 16), HPLC Method A; assay type: physicochemical; for Ring Contraction Degradant: key: BRL=below recordable limit
[3] = Buffer compatibility: stability of MNTX in pH 7 phosphate or glycine solution (Tables 9, 10), HPLC Method A; assay type: physicochemical
Description: Evaluation of phosphate buffers solution stability. We have also assessed different buffers to determine compatibility and whether various conditions would convey further stability to methylnaltrexone solutions. Table 9 and Table 10 show results (HPLC Method A) of total degradant formation over time in methylnaltrexone solutions prepared in phosphate solution (Table 9), and glycine solution (Table 10). We found at pH 7, glycine provides better stability characteristics to samples than phosphate.

C[N+]1(CC2CC2)CC[C@]23c4c5ccc(O)c4O[C@H]2C(=O)CC[C@@]3(O)[C@H]1C5 (stereo partly shown) [MNTX, methylnaltrexone bromide]
solubility in water [1]: freely soluble in water | 7-Dihydroxy MNTX ([2]; 40° C., 1 hour): BRL | O-Methyl MNTX ([2]; 40° C., 1 hour): 0.12 | Ring Contraction Degradant ([2]; 40° C., 1 hour): BRL | Total ([2]; 40° C., 1 hour): 0.12 | 7-Dihydroxy MNTX ([2]; 40° C., 2 hours): 0.02 | O-Methyl MNTX ([2]; 40° C., 2 hours): 0.12 | Ring Contraction Degradant ([2]; 40° C., 2 hours): BRL | Total ([2]; 40° C., 2 hours): 0.14 | 7-Dihydroxy MNTX ([2]; 40° C., 3 hours): 0.02 | O-Methyl MNTX ([2]; 40° C., 3 hours): 0.12 | Ring Contraction Degradant ([2]; 40° C., 3 hours): BRL | Total ([2]; 40° C., 3 hours): 0.14 | 7-Dihydroxy MNTX ([2]; 40° C., 4 hours): 0.02 | O-Methyl MNTX ([2]; 40° C., 4 hours): 0.12 | Ring Contraction Degradant ([2]; 40° C., 4 hours): BRL | Total ([2]; 40° C., 4 hours): 0.14 | 7-Dihydroxy MNTX ([2]; 40° C., 5 hours): 0.03 | O-Methyl MNTX ([2]; 40° C., 5 hours): 0.12 | Ring Contraction Degradant ([2]; 40° C., 5 hours): BRL | Total ([2]; 40° C., 5 hours): 0.15 | 7-Dihydroxy MNTX ([2]; 40° C., Initial): BRL | O-Methyl MNTX ([2]; 40° C., Initial): 0.12 | Ring Contraction Degradant ([2]; 40° C., Initial): BRL | Total ([2]; 40° C., Initial): 0.12 | 7-Dihydroxy MNTX ([2]; Room Temperature, 1 hour): BRL | O-Methyl MNTX ([2]; Room Temperature, 1 hour): 0.12 | Ring Contraction Degradant ([2]; Room Temperature, 1 hour): BRL | Total ([2]; Room Temperature, 1 hour): 0.12 | 7-Dihydroxy MNTX ([2]; Room Temperature, 2 hours): 0.02 | O-Methyl MNTX ([2]; Room Temperature, 2 hours): 0.12 | Ring Contraction Degradant ([2]; Room Temperature, 2 hours): BRL | Total ([2]; Room Temperature, 2 hours): 0.14 | 7-Dihydroxy MNTX ([2]; Room Temperature, 3 hours): 0.02 | O-Methyl MNTX ([2]; Room Temperature, 3 hours): 0.12 | Ring Contraction Degradant ([2]; Room Temperature, 3 hours): BRL | Total ([2]; Room Temperature, 3 hours): 0.14 | 7-Dihydroxy MNTX ([2]; Room Temperature, 4 hours): 0.02 | O-Methyl MNTX ([2]; Room Temperature, 4 hours): 0.12 | Ring Contraction Degradant ([2]; Room Temperature, 4 hours): BRL | Total ([2]; Room Temperature, 4 hours): 0.14 | 7-Dihydroxy MNTX ([2]; Room Temperature, 5 hours): 0.02 | O-Methyl MNTX ([2]; Room Temperature, 5 hours): 0.12 | Ring Contraction Degradant ([2]; Room Temperature, 5 hours): BRL | Total ([2]; Room Temperature, 5 hours): 0.14 | 7-Dihydroxy MNTX ([2]; Room Temperature, Initial): BRL | O-Methyl MNTX ([2]; Room Temperature, Initial): 0.12 | Ring Contraction Degradant ([2]; Room Temperature, Initial): BRL | Total ([2]; Room Temperature, Initial): 0.12 | Appearance and Description ([3]; pH 7, 0.02M Glycine Solution, 40° C., r24 0 time, r26 1 day, r28 2 days, r30 6 days, r32 9 days, r34 14 days, r36 21 days): Clear, colorless | Appearance and Description ([3]; pH 7, 0.02M Glycine Solution, Room Temperature, r8 0 time, r11 1 day, r13 2 days, r15 6 days, r18 9 days, r20 14 days, r22 21 days): Clear, colorless | Appearance and Description ([3]; pH 7, 0.02M Phosphate Solution, 40° C., r22 0 time, r24 1 day, r26 2 days, r28 6 days, r30 9 days, r32 14 days, r35 21 days, elapsed 0 time): Clear, colorless | Appearance and Description ([3]; pH 7, 0.02M Phosphate Solution, 60° C., r38 0 time, r40 1 day, r42 2 days, r44 6 days, r46 9 days, r48 14 days, r50 21 days, elapsed 0 time): Clear, colorless | Appearance and Description ([3]; pH 7, 0.02M Phosphate Solution, 60° C., r38 0 time, r40 1 day, r42 2 days, r44 6 days, r46 9 days, r48 14 days, r50 21 days, elapsed 9 days): Clear, yellow | Appearance and Description ([3]; pH 7, 0.02M Phosphate Solution, Room Temperature, r8 0 time, r10 1 day, r12 2 days, r14 6 days, r16 9 days, r18 14 days, r20 21 days): Clear, colorless

Reference: US12303592B2, “Formulations for parenteral delivery of compounds and uses thereof” (Wyeth, LLC, priority 2006, dated 2025)
